# Several values for one entry are separate records, joined by “and”; a condition that tells them apart may be missing. Equal values may be shown once. Read-outs that look alike come from different tables or passages of the source.
# Legend:
# [1] = system: souris; settings: mouse
# Description: (§1) Ces études ont été réalisées chez des souris mâles, de souche NMRI-Han, réparties au hasard en lots de 15 souris (séries traitées) et 20 souris (série contrôle).
# La motilité a été mesurée à l'aide d'un actimètre "type Dews" (Brit. J. Pharmacol. 1953, 8 : 46). Les animaux sont placés un par un dans une enceinte rectangulaire en matière plastique transparente (mesures intérieures : L = 24 cm, l = 15 cm, h = 9,5 cm), couverte par un grillage métallique et traversée par deux faisceaux infra-rouges perpendiculaires situés à 2 cm au-dessus du plancher (médianes de l'enceinte); ces deux faisceaux viennent frapper deux cellules photo-électriques reliées à un compteur d'impulsions déclenché à chaque fois que l'animal coupe un des faisceaux. Les actimètres ont été placés dans une pièce non insonorisée mais en dehors de tout bruit aigu, à une température de l'ordre de 21°C.
# L'activité motrice a été mesurée au cours des 5 premières minutes (exploration non anxiogène) puis entre 5 et 15 minutes (activité basale non anxiogène).
# (§2) Les doses ont été calculées selon une progression géométrique de base 700 (correspondant au 1/10 de la DL 50) et de raison 2, soit respectivement 175, 350, 700 et 1400 mg.kg⁻¹.
# (§3) Les traitements sont réalisés 60 minutes avant le test.
# (§4) Il est identique à celui décrit dans l'exemple précédent.
# (§5) Les doses ont été calculées selon une progression géométrique de base 700 (correspondant au 1/10 de la DL 50) et de raison 2, soit respectivement 10,95; 21,9; 43,8; 87,5; 175; 350; 700 mg/kg. […] Les derniers traitements ont été réalisés 60 minutes avant le test.
# [2] = system: souris; settings: mouse; for Nombre de passages "punis" (moyenne): 60 min before test, controls 5,8
# Description: Le test est pratiqué chez des souris NMRI-HAN soumises à une diète hydrique préalable de 18 heures et réparties en séries de 15.
# L'appareillage utilisé consiste en une boite en plexiglas dont le sol est constitué de 4 plaques métalliques séparées les unes des autres. Un circuit d'alimentation permet d'établir une différence de potentiel entre deux plaques adjacentes grâce à un contacteur. Le test est pratiqué en plaçant doucement une souris sur une des plaques du fond de l'appareil ; les plaques sont électrifiées chaque fois que la souris passe de l'une à l'autre, de telle sorte qu'elle reçoit alors un choc électrique au niveau des pattes. Les paramètres du choc sont les suivants : durée de l'impulsion électrique égale à 0,5 seconde ; intensité égale à 0,6 milliampères. Ce choc induit chez les animaux une réaction motrice évidente de fuite, la souris traversant souvent 2 à 3 plaques successivement. Les conditions expérimentales adoptées ont été les suivantes : exploration libre pendant 15 secondes, traversée punie pendant la minute suivante, les résultats étant exprimés en nombre de passages "punis" pendant cette minute. Soixante souris ont été réparties de la façon suivante :
# Les administrations ont été réalisées par voie intra-gastrique, à partir de solutions aqueuses, sous un volume constant de 20 ml.kg⁻¹, 60 minutes avant le début du test. Les animaux contrôles ont reçu un même volume d'eau distillée.
# Les administrations ont été réalisées par voie intra-gastrique, à partir de solutions aqueuses, sous un volume constant de 20 ml.kg⁻¹ par produit 60 minutes avant le début du test. Les animaux contrôles ont reçu un même volume d'eau distillée.
# Dans un premier temps a été calculée la DA 50 (dose anxiolytique 50) du Diazépam (Valium® 10 mg - Roche, ampoule 2ml) seul, administré à des doses suivant une progression géométrique de base 0,25 et de raison 2, soit respectivement 0,25, 0,5 l et 2 mg.kg⁻¹.
# La DA 50 est déterminée à partir du pourcentage d'animaux tranquillisés. Est considéré comme tranquillisé tout animal dont le nombre de passages punis est égal ou supérieur à 9, c'est-à-dire à une valeur représentant une augmentation d'au moins 50 % par rapport au score moyen d'animaux non traités.
# Toutes les administrations ont été réalisées par voie intra-gastrique à partir de solutions aqueuses, sous un volume constant de 20 ml.kg⁻¹ (eau distillée pour le groupe contrôle). […] La veille du test, les souris sont soumises à une diète hydrique de 18 heures. La dernière ingestion est pratiquée une heure avant l'étude, concomitamment avec le diazépam (Valium® 10 mg - Roche, ampoules de 2 ml).
# [3] = system: souris; settings: for Animaux tombés (%): controls 20,0
# Description: Le test dit du "rota-rod" permet de juger le tonus musculaire et la coordination motrice de souris placées sur une tige tournant à vitesse constante.
# as §1
# La DA 50 s'exprime par la dose qui provoque en moins de 3 minutes la chute de 50 p. 100 des souris placées sur une tige en bois tournant à une vitesse de 16 tours/min (diamètre 1,7 cm). Ce test qui permet de juger de la coordination motrice des souris est adapté de la technique décrite par N.W. DUNHAN and T.S. MIYA (J. Am. Pharm. Assoc. 1957, 46 : 208)
# as §2, §3, §4, §5
# [4] = system: souris; settings: mouse; for animaux ne présentant pas de comportement anxiogène (miction, défécation): controls 20 %; for souris présentant une défécation et une miction émotionnelles: controls 85 p. 100
# Description: as §1
# Enfin, l'effet à l'égard des manifestations dites émotionnelles est mesuré sur la miction et la défécation au cours des 3 minutes passées dans le cylindre et permet le calcul d'une DA 50 dite "anti-émotionnelle".
# as §2, §3, §4, §5
# [5] = repeated daily dosing (13 days), 10.95 mg/kg P.O., last dose 60 min before test
# [6] = repeated daily dosing (13 days), 21.9 mg/kg P.O., last dose 60 min before test
# [7] = repeated daily dosing (13 days), 43.8 mg/kg P.O., last dose 60 min before test, 43.8 mg/kg
# [8] = repeated daily dosing (13 days), 43.8 mg/kg P.O., last dose 60 min before test, listed as Mag, 43.8 mg/kg
# [9] = repeated daily dosing (13 days), 87.5 mg/kg P.O., last dose 60 min before test
# [10] = repeated daily dosing (13 days), 175 mg/kg P.O., last dose 60 min before test
# [11] = repeated daily dosing (13 days), 350 mg/kg P.O., last dose 60 min before test, 350 mg/kg
# [12] = repeated daily dosing (13 days), 350 mg/kg P.O., last dose 60 min before test, listed as Mag, 350 mg/kg
# [13] = repeated daily dosing (13 days), 700 mg/kg P.O., last dose 60 min before test
# [14] = single dose 175 mg.kg⁻¹ P.O., 60 min before test
# [15] = single dose 350 mg.kg⁻¹ P.O., 60 min before test
# [16] = single dose 700 mg.kg⁻¹ P.O., 60 min before test
# [17] = single dose 700 mg.kg⁻¹ P.O., 60 min before test, listed as Mag
# [18] = single dose 1400 mg.kg⁻¹ P.O., 60 min before test
substance,measurement,setting,value
α-β-aspartate de magnésium,"Activité motrice 0-5 minutes, nombre de coupures de faisceaux (moyenne)",[1]; [5],98
same,"Activité motrice 0-15 minutes, nombre de coupures de faisceaux (moyenne)",[1]; [5],221
same,"Activité motrice 5-15 minutes, nombre de coupures de faisceaux (moyenne)",[1]; [5],123
same,"Activité motrice 0-5 minutes, nombre de coupures de faisceaux (moyenne)",[1]; [6],104
same,"Activité motrice 0-15 minutes, nombre de coupures de faisceaux (moyenne)",[1]; [6],237
same,"Activité motrice 5-15 minutes, nombre de coupures de faisceaux (moyenne)",[1]; [6],133
same,"Activité motrice 0-15 minutes, nombre de coupures de faisceaux (moyenne)","[1]; repeated daily dosing (13 days), 43.8 mg/kg P.O., last dose 60 min before test",232
same,"Activité motrice 0-5 minutes, nombre de coupures de faisceaux (moyenne)",[1]; [7],élévation significative
same,"Activité motrice 5-15 minutes, nombre de coupures de faisceaux (moyenne)",[1]; [7],élévation significative
same,"Activité motrice 0-5 minutes, nombre de coupures de faisceaux (moyenne)",[1]; [8],104
same,"Activité motrice 5-15 minutes, nombre de coupures de faisceaux (moyenne)",[1]; [8],128
same,"Activité motrice 0-5 minutes, nombre de coupures de faisceaux (moyenne)",[1]; [9],99
same,"Activité motrice 0-15 minutes, nombre de coupures de faisceaux (moyenne)",[1]; [9],195
same,"Activité motrice 5-15 minutes, nombre de coupures de faisceaux (moyenne)",[1]; [9],96
same,"Activité motrice 0-5 minutes, nombre de coupures de faisceaux (moyenne)",[1]; [10],106
same,"Activité motrice 0-15 minutes, nombre de coupures de faisceaux (moyenne)",[1]; [10],228
same,"Activité motrice 5-15 minutes, nombre de coupures de faisceaux (moyenne)",[1]; [10],122
same,"Activité motrice 0-15 minutes, nombre de coupures de faisceaux (moyenne)","[1]; repeated daily dosing (13 days), 350 mg/kg P.O., last dose 60 min before test",248
same,"Activité motrice 0-5 minutes, nombre de coupures de faisceaux (moyenne)",[1]; [11],élévation significative
same,"Activité motrice 5-15 minutes, nombre de coupures de faisceaux (moyenne)",[1]; [11],élévation significative
same,"Activité motrice 0-5 minutes, nombre de coupures de faisceaux (moyenne)",[1]; [12],107
same,"Activité motrice 5-15 minutes, nombre de coupures de faisceaux (moyenne)",[1]; [12],141
same,"Activité motrice 0-5 minutes, nombre de coupures de faisceaux (moyenne)",[1]; [13],104
same,"Activité motrice 0-15 minutes, nombre de coupures de faisceaux (moyenne)",[1]; [13],230
same,"Activité motrice 5-15 minutes, nombre de coupures de faisceaux (moyenne)",[1]; [13],126
same,"Activité motrice 0-5 minutes, nombre de coupures de faisceaux (moyenne)",[1]; [14],100
same,"Activité motrice 0-15 minutes, nombre de coupures de faisceaux (moyenne)",[1]; [14],172
same,"Activité motrice 5-15 minutes, nombre de coupures de faisceaux (moyenne)",[1]; [14],72
same,"Activité motrice 0-5 minutes, nombre de coupures de faisceaux (moyenne)",[1]; [15],96
same,"Activité motrice 0-15 minutes, nombre de coupures de faisceaux (moyenne)",[1]; [15],213
same,"Activité motrice 5-15 minutes, nombre de coupures de faisceaux (moyenne)",[1]; [15],117
same,"Activité motrice 0-5 minutes, nombre de coupures de faisceaux (moyenne)",[1]; [16],augmentation statistiquement significative
same,"Activité motrice 0-15 minutes, nombre de coupures de faisceaux (moyenne)",[1]; [16],258
same,"Activité motrice 5-15 minutes, nombre de coupures de faisceaux (moyenne)",[1]; [16],augmentation statistiquement significative
same,"Activité motrice 0-5 minutes, nombre de coupures de faisceaux (moyenne)",[1]; [17],113
same,"Activité motrice 5-15 minutes, nombre de coupures de faisceaux (moyenne)",[1]; [17],145
same,"Activité motrice 0-5 minutes, nombre de coupures de faisceaux (moyenne)",[1]; [18],110
same,"Activité motrice 0-15 minutes, nombre de coupures de faisceaux (moyenne)",[1]; [18],214
same,"Activité motrice 5-15 minutes, nombre de coupures de faisceaux (moyenne)",[1]; [18],104
same,"Nombre de passages ""punis"" (moyenne)",[2]; single dose 300 mg.kg⁻¹ P.O.,n'accroît pas significativement
same,"Nombre de passages ""punis"" (moyenne)","[2]; single dose 300 mg.kg⁻¹ P.O., listed as Mag","6,4"
same,"Nombre de passages ""punis"" (moyenne)",[2]; single dose 600 mg.kg⁻¹ P.O.,accru significativement
same,"Nombre de passages ""punis"" (moyenne)","[2]; single dose 600 mg.kg⁻¹ P.O., listed as Mag","8,3"
same,"Nombre de passages ""punis"" (moyenne)",[2]; single dose 1200 mg.kg⁻¹ P.O.,accru significativement
same,"Nombre de passages ""punis"" (moyenne)","[2]; single dose 1200 mg.kg⁻¹ P.O., listed as Mag","7,5"
same,dose optimum (propriétés tranquillisantes mineures),[2]; single dose P.O.,600 mg/kg
same,Animaux tombés (%),"[3]; mouse, 10,95 mg.kg⁻¹ P.O x13","26,6%"
same,Animaux tombés (%),"[3]; mouse, 21,9 mg.kg⁻¹ P.O x13","33,3%"
same,Animaux tombés (%),"[3]; mouse, 43,8 mg.kg⁻¹ P.O x13","46,6%"
same,Animaux tombés (%),"[3]; mouse, 67,5 mg.kg⁻¹ P.O x13","33,3%"
same,Animaux tombés (%),"[3]; mouse, 175,0 mg.kg⁻¹ P.O x13","46,6%"
same,Animaux tombés (%),"[3]; mouse, 350,0 mg.kg⁻¹ P.O x13","33,3%"
same,Animaux tombés (%),"[3]; mouse, 700,0 mg.kg⁻¹ P.O x13","33,3%"
same,souris qui chutent de la tige tournante au cours des 3 minutes,"[3]; mouse, single dose 175 mg.kg⁻¹ P.O., controls 25 %",13%
same,"DA 50 (réduction du tonus musculaire, rota-rod)","[3]; mouse, single dose P.O., Litchfield-Wilcoxon, confidence limits (5 p. 100) 343 - 1091 mg.kg⁻¹",612 mg/kg
same,"DA 50 (enceinte anxiogène, sujets ne présentant pas de comportement anxieux)","[4]; repeated administration over 13 days P.O., limits 11,26 - 68,66 mg/kg","27,8 mg/kg and 28 mg/kg and 27,81 mg/kg"
same,"animaux ne présentant pas de comportement anxiogène (miction, défécation)","[4]; repeated dosing (13 days), 175 mg/kg P.O.","73,3%"
same,"animaux ne présentant pas de comportement anxiogène (miction, défécation)","[4]; repeated dosing (13 days), 350 mg/kg P.O.",60%
same,"animaux ne présentant pas de comportement anxiogène (miction, défécation)","[4]; repeated dosing (13 days), 700 mg/kg P.O.","66,7%"
same,"animaux ne présentant pas de comportement anxiogène (miction, défécation)","[4]; repeated dosing (13 days), 10,95 mg/kg P.O.",40%
same,"animaux ne présentant pas de comportement anxiogène (miction, défécation)","[4]; repeated dosing (13 days), 21,9 mg/kg P.O.",40%
same,"animaux ne présentant pas de comportement anxiogène (miction, défécation)","[4]; repeated dosing (13 days), 43,8 mg/kg P.O.",60%
same,"animaux ne présentant pas de comportement anxiogène (miction, défécation)","[4]; repeated dosing (13 days), 87,5 mg/kg P.O.","66,7%"
same,souris présentant une défécation et une miction émotionnelles,[4]; single dose 175 mg.kg⁻¹ P.O.,40%
same,souris présentant une défécation et une miction émotionnelles,[4]; single dose 350 mg.kg⁻¹ P.O.,53%
same,souris présentant une défécation et une miction émotionnelles,[4]; single dose 700 mg.kg⁻¹ P.O.,27%
same,souris présentant une défécation et une miction émotionnelles,[4]; single dose 1400 mg.kg⁻¹ P.O.,73%
same,"DA 50 ""anti-émotionnelle""","[4]; single dose P.O., confidence limits (5 p. 100) 160 - 2082 mg.kg⁻¹",577 mg/kg
